Data from US10722520B2, “Heterocyclic compounds and their use in preventing or treating bacterial infections” (MUTABILIS, priority 2016, dated 2020).

Tests used:
[1] = molecular target: TEM-1 (Escherichia coli, UniProt P62593)
[2] = molecular target: SHV-1 (Klebsiella pneumoniae, UniProt P0AD64)
[3] = test system: E. cloacae 260508; assay: MIC of ceftazidime (CAZ) at fixed concentration of compound (synergy), broth microdilution; format: cell-based; conditions: strain 260508 (E. cloacae)
Method in brief: (§1)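 Step one, log-phase suspension set to 5×10^5 cfu/mL final in CA-MHB. Step two, incubation at 35° C under ambient air for 16-20 h. Step three, visual reading of the lowest growth-free concentration as MIC.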

[4] = test system: K. pneumoniae 6299; assay: as above; format: cell-based; conditions: strain 6299 (K. pneumoniae)
Method in brief: as §1

[5] = test system: E. coli 131119; assay: as above; format: cell-based; conditions: strain 131119 (E. coli)
Method in brief: as §1

[6] = test system: K. pneumoniae 200047; assay: as above; format: cell-based; conditions: strain 200047 (K. pneumoniae)
Method in brief: as §1

[7] = test system: E. cloacae UFR85; assay: as above; format: cell-based; conditions: strain UFR85 (E. cloacae)
Method in brief: as §1

[8] = test system: E. coli UFR74; assay: as above; format: cell-based; conditions: strain UFR74 (E. coli)
Method in brief: as §1

[9] = test system: E. coli 190317; assay: as above; format: cell-based; conditions: strain 190317 (E. coli)
Method in brief: as §1

[10] = test system: K. pneumoniae UFR24; assay: as above; format: cell-based; conditions: strain UFR24 (K. pneumoniae)
Method in brief: as §1

[11] = test system: E. cloacae UFR51; assay: as above; format: cell-based; conditions: strain UFR51 (E. cloacae)
Method in brief: as §1

[12] = test system: K. oxytoca UFR21; assay: as above; format: cell-based; conditions: strain UFR21 (K. oxytoca)
Method in brief: as §1

[13] = test system: E. coli UFR18; assay: as above; format: cell-based; conditions: strain UFR18 (E. coli)
Method in brief: as §1

[14] = test system: E. coli RGN238; assay: as above; format: cell-based; conditions: strain RGN238 (E. coli)
Method in brief: as §1

[15] = test system: E. coli UFR41; assay: as above; format: cell-based; conditions: strain UFR41 (E. coli)
Method in brief: as §1

[16] = test system: K. pneumoniae 160143; assay: as above; format: cell-based; conditions: strain 160143 (K. pneumoniae)
Method in brief: as §1

[17] = test system: E. coli UFR39; assay: as above; format: cell-based; conditions: strain UFR39 (E. coli)
Method in brief: as §1

[18] = test system: P. aeruginosa CIP107051; assay: as above; format: cell-based; conditions: strain CIP107051 (P. aeruginosa)
Method in brief: as §1

[19] = test system: K. pneumoniae BAA-1898; assay: as above; format: cell-based; conditions: strain BAA-1898 (K. pneumoniae)
Method in brief: as §1

[20] = test system: E. coli UFR61O; assay: as above; format: cell-based; conditions: strain UFR61O (E. coli)
Method in brief: as §1

[21] = test system: K. pneumoniae UFR68; assay: as above; format: cell-based; conditions: strain UFR68 (K. pneumoniae)
Method in brief: as §1

[22] = test system: E. cloacae UFR70; assay: as above; format: cell-based; conditions: strain UFR70 (E. cloacae)
Method in brief: as §1

[23] = test system: E. cloacae P99; assay: as above; format: cell-based; conditions: strain P99 (E. cloacae)
Method in brief: as §1

[24] = molecular target: OXA-48 (Klebsiella pneumoniae, UniProt Q6XEC0)
[25] = molecular target: OXA-15 (Pseudomonas aeruginosa, UniProt Q51574); assay: biochemical
[26] = test system: E. coli RGN238; assay: microbe, parasite or virus in culture; format: cell-based; conditions: Escherichia coli, RGN238, read-out: MIC compounds of the invention alone
Description: Log phase bacterial suspensions were adjusted to a final density of 5×10^5 cfu/mL in cation-adjusted Mueller-Hinton broth (Becton-Dickinson) and added to each well (98 μL). Microplates were incubated for 16-20 h at 35° C. in ambient air. The MIC of the compounds was defined as the lowest concentration of said compounds that prevented bacterial growth as read by visual inspection.

[27] = molecular target: OXA-1 (Escherichia coli, UniProt P13661)
[28] = molecular target: CTX-M-15 (Escherichia coli, UniProt Q9EXV5)
[29] = molecular target: KPC-2 (Klebsiella pneumoniae, UniProt Q9F663)
[30] = molecular target: CMY-37 (Citrobacter freundii, UniProt P05193); conditions: read-out: IC50 β-lactamase CMY-37
[31] = MIC of ceftazidime with compound fixed at 4 μg/mL
[32] = footnote *: MIC of ceftazidime with compound fixed at 8 μg/mL

O=C1N2CC(n3ccnn3)=C[C@H](C2)N1OS(=O)(=O)O [Example 6, sodium [(5R)-7-oxo-3-(triazol-1-yl)-1,6-diazabicyclo[3.2.1]oct-3-en-6-yl]sulfate]
IC50 [1]: 0.36 nM | IC50 [2]: 1.9 nM | MIC combination of CAZ and compounds of the invention at 4 μg/mL [3, 31]: <0.25 | MIC combination of CAZ and compounds of the invention at 4 μg/mL [4, 31]: <0.25 | MIC combination of CAZ and compounds of the invention at 4 μg/mL [5, 31]: <0.25 | MIC combination of CAZ and compounds of the invention at 4 μg/mL [6, 31]: <0.25 | MIC combination of CAZ and compounds of the invention at 4 μg/mL [7, 31]: <0.25 | MIC combination of CAZ and compounds of the invention at 4 μg/mL [8, 31]: <0.25 | MIC combination of CAZ and compounds of the invention at 4 μg/mL [9, 31]: <0.25 | MIC combination of CAZ and compounds of the invention at 4 μg/mL [10, 31]: <0.25 | MIC combination of CAZ and compounds of the invention at 4 μg/mL [11, 31]: <0.25 | MIC combination of CAZ and compounds of the invention at 4 μg/mL [12, 31]: <0.25 | MIC combination of CAZ and compounds of the invention at 4 μg/mL [13, 31]: <0.25 | MIC combination of CAZ and compounds of the invention at 4 μg/mL [14, 31]: <0.25 | MIC combination of CAZ and compounds of the invention at 4 μg/mL [15, 31]: <0.25 | MIC combination of CAZ and compounds of the invention at 4 μg/mL [16, 31]: <0.25 | MIC combination of CAZ and compounds of the invention at 4 μg/mL [17, 31]: <0.25 | MIC combination of CAZ and compounds of the invention at 4 μg/mL [18, 31]: 4 | MIC combination of CAZ and compounds of the invention at 4 μg/mL [19, 31]: <0.25 | MIC combination of CAZ and compounds of the invention at 4 μg/mL [20, 31]: <0.25 | MIC combination of CAZ and compounds of the invention at 4 μg/mL [21, 31]: <0.25 | MIC combination of CAZ and compounds of the invention at 4 μg/mL [22, 31]: <0.25 | MIC combination of CAZ and compounds of the invention at 4 μg/mL [23, 31]: <0.25 | IC50 [24]: 0.38 nM | IC50 [25]: 21 nM | MIC [26]: 1 µg/mL | IC50 [27]: 31 nM | IC50 [28]: 0.58 nM | IC50 [29]: 2.1 nM

O=C1N2CC(n3cncn3)=CC(C2)N1OS(=O)(=O)[O-].[Na+] (centres unmarked) [Example 5, sodium [7-oxo-3-(1,2,4-triazol-1-yl)-1,6-diazabicyclo[3.2.1]oct-3-en-6-yl]sulfate]
IC50 [1]: 0.8 nM | IC50 [2]: 4.4 nM | MIC combination of CAZ and compound at 8 μg/mL [3, 32]: <0.25 | MIC combination of CAZ and compound at 8 μg/mL [4, 32]: <0.25 | MIC combination of CAZ and compound at 8 μg/mL [5, 32]: <0.25 | MIC combination of CAZ and compound at 8 μg/mL [6, 32]: <0.25 | MIC combination of CAZ and compound at 8 μg/mL [7, 32]: <0.25 | MIC combination of CAZ and compound at 8 μg/mL [8, 32]: <0.25 | MIC combination of CAZ and compound at 8 μg/mL [9, 32]: <0.25 | MIC combination of CAZ and compound at 8 μg/mL [10, 32]: <0.25 | MIC combination of CAZ and compound at 8 μg/mL [11, 32]: <0.25 | MIC combination of CAZ and compound at 8 μg/mL [12, 32]: <0.25 | MIC combination of CAZ and compound at 8 μg/mL [13, 32]: <0.25 | MIC combination of CAZ and compound at 8 μg/mL [14, 32]: <0.25 | MIC combination of CAZ and compound at 8 μg/mL [15, 32]: <0.25 | MIC combination of CAZ and compound at 8 μg/mL [16, 32]: <0.25 | MIC combination of CAZ and compound at 8 μg/mL [17, 32]: <0.25 | MIC combination of CAZ and compound at 8 μg/mL [18, 32]: 4 | MIC combination of CAZ and compound at 8 μg/mL [19, 32]: <0.25 | MIC combination of CAZ and compound at 8 μg/mL [20, 32]: <0.25 | MIC combination of CAZ and compound at 8 μg/mL [21, 32]: <0.25 | MIC combination of CAZ and compound at 8 μg/mL [22, 32]: <0.25 | MIC combination of CAZ and compound at 8 μg/mL [23, 32]: <0.25 | IC50 [24]: 0.45 nM | IC50 [25]: 27 nM | MIC [26]: 2 µg/mL | IC50 [30]: 36 nM | IC50 [27]: 49 nM | IC50 [28]: 0.66 nM | IC50 [29]: 3 nM
